Structures can show the parent of a compound that is named as a salt. Where two headings read alike, the source gives them in different places.
What was measured:
[1] = test system: SARS-CoV-2; format: cell-based; details: 48 hours, Calu-3, FIG. 6
[2] = test system: NL63-infected LLC-MK2 cells; assay: LDH release cytotoxicity assay on NL63-infected LLC-MK2 cells; format: cell-based, rhesus monkey; details: five days
Protocol: With reference to FIG. 2 (Example 2), the exposure time of TMP on NL63-infected LLC-MK2 cells was measured to determine if long-term exposure to TMP could result in cell cytotoxicity. Cytotoxicity to the host cells can be caused by viral infection, which causes cell lysis, or by toxicity of test compounds to host cells. Cytotoxicity is measured by the release of lactate dehydrogenase (LDH), a cellular housekeeping enzyme, and its conversion of a colored substrate in the final reaction. Cells that die or lyse release LDH into the extracellular milieu; thus, the more LDH that is released by dying cells, the higher the LDH reading.
LLC-MK2 cells were inoculated with NL63 as provided in Example 1. The cells were tested for cytotoxicity through the release of lactate dehydrogenase (LDH), the latter of which was measured and quantified with an LDH assay multiplate reader. The cytotoxicity assay was performed three times and values for each treatment group and controls were averaged across assays, as show in FIGS. 2 and 3.

[3] = test system: SARS-CoV-2-infected Vero E6 cells; assay: Cell cytotoxicity (cell lysis / plaques, monoclonal antibody) of SARS-CoV-2-infected Vero E6 cells; format: cell-based, African green monkey; details: 48 hours; for cell cytotoxicity (cell lysis): FIG. 5
Protocol: With reference to FIG. 5 (Example 3), Vero E6 were infected with SARS-CoV-2 virus, treated with 0.2 μM, 1.0 μM, 5.0 μM, 20 μM, and 80 μM of TMP, and tested for cell cytotoxicity using monoclonal antibodies after 48 hours. Infected Vero E6 cells without treatment were used as a negative control and infected Vero E6 cells treated with CM were used as a positive control. Here, the cells were tested for cytotoxicity via the formation of plaques identified with a monoclonal antibody.
(§1) Vero E6 African green monkey kidney epithelial cells were cultured as host cells for the SARS-CoV-2 coronavirus in 96-well cell culture plates. 500-1500 units of SARS-CoV-2 virus in Eagle's minimal essential medium (EMEM) with 10% Fetal Bovine Serum (FBS), L-glutamine, and Na-pyruvate phosphate buffered saline was introduced to the Vero E6 cell culture wells as described in Ogando et al., Journal of General Virology (2020) (available at biorxiv.org/content/10.1101/2020.04.20.049924v1). […] Plaques were identified using a plaque assay with the mouse monoclonal antibody J2 (Ogando et al., supra). Viral RNA was also isolated from the media supernatant and virus copy number was determined by RT-PCR for estimation of virus copy number following treatment.
Stock solutions of TMP were prepared by dissolving TMP in 100% DMSO at 50 mM with warming at 70° C. for 3 hours. TMP was added to the SARS-CoV-2-infected Vero E6 cells in the following concentrations: 0.2 μM, 1 μM, 5 μM, 20 μM, and 80 μM. Untreated infected Vero E6 cells and infected Vero E6 treated with CM were used as negative and positive controls, respectively. 48 hours following treatment with TMP, 400 μL of supernatant was collected from each plate well and viral RNA (no cellular RNA was collected) and virus copy number were measured from the extracted DNA by the ORIG3N RT-PCR test for the 1 μM, 5 μM, and 20 μM TMP-treatment wells as well as for the negative and positive controls. Separately, cell lysis was measured for all five TMP-treatment wells as well as for the negative and positive controls. The assay was repeated two additional times. FIGS. 4A-4C show the mean±SD of the number of copies of SARS-CoV-2 RNA measured from the cell supernatant for the three assay runs of the Vero E6 cells.

[4] = test system: SARS-CoV-2-infected Calu-3 cells; assay: Cell cytotoxicity (plaques, monoclonal antibody) of SARS-CoV-2-infected Calu-3 cells; format: cell-based, human; details: 48 hours, Calu-3, FIG. 6
Protocol: With reference to FIG. 6 (Example 4), the TMP-treatment protocol for the Vero E6 cells was repeated with Calu-3 cells (human non-small-cell lung cancer cells) infected with SARS-CoV-2. Infected Calu-3 cells without treatment were used as a negative control and infected Calu-3 cells treated with CM were used as a positive control. A monoclonal antibody was used to identify cell cytotoxicity.
as §1, with “Calu-3 human non-small-cell lung cancer” for “Vero E6 African green monkey kidney epithelial”, “supra.” for “Journal of General Virology (2020) (available at biorxiv.org/content/10.1101/2020.04.20.049924v1).”
Stock solutions of TMP were prepared by dissolving TMP in 100% DMSO at 50 mM with warming at 70° C. for 3 hours. TMP was added to the SARS-CoV-2-infected Vero E6 cells in the following concentrations: 5 μM, 20 μM, and 40 μM. Untreated infected Vero E6 cells and infected Vero E6 treated with CM were used as negative and positive controls, respectively. 48 hours following treatment with TMP, 400 μL of supernatant was collected from each plate well and viral RNA (no cellular RNA was collected) and virus copy number were measured determined from the extracted DNA by the ORIG3N RT-PCR test. The assay was repeated two additional times.

[5] = test system: HCoV-NL63; details: 48 hours; for cell toxicity resulting from the TMP treatment: LLC-MK2 cells
[6] = test system: SARS-CoV-2; format: cell-based

SMILES: CN(C)C(=O)COC(=O)Cc1ccc(OC(=O)c2ccc(NC(=N)N)cc2)cc1 [CM, camostat mesylate, reference compound]
- viral replication ([1]; CM control): almost zero viral replication
- cell toxicity (LDH release) ([2]; CM positive control, FIG. 2): no cell toxicity
- cell cytotoxicity (cell lysis) ([3]; CM positive control): no appreciable cytotoxic effects

SMILES: COc1ccc(C[C@@H](C)[C@@H](C)Cc2ccc(OC)c(OC)c2)cc1OC [TMP, Tetra-O-methyl NDGA]
- reduction in the mean number of copies of SARS-CoV-2 compared to the negative control ([1]; 5 μM TMP): 25%
- viral replication ([1]; 20 μM TMP): almost zero viral replication
- viral replication ([1]; 40 μM TMP): almost zero viral replication
- cell cytotoxicity ([4]; 5 μM TMP): non-detectable cytotoxicity
- cell cytotoxicity ([4]; 20 μM TMP): non-detectable cytotoxicity
- cell cytotoxicity ([4]; 40 μM TMP): only slightly increased cytotoxicity
- viral activity ([5]; 0.2 μM TMP, FIG. 1): partial reduction in viral activity
- viral RNA copy number (mean+standard deviation) ([5]; 0.2 μM TMP, NL63-infected LLC-MK2 cells, FIG. 1, P=0.004 versus negative control): 50,882+2,296 copies
- viral activity ([5]; 1 μM TMP, FIG. 1): almost no viral activity
- cell toxicity resulting from the TMP treatment ([5]; 1 μM TMP): no discernable cell toxicity
- viral activity ([5]; 5 μM TMP, FIG. 1): almost no viral activity
- cell toxicity resulting from the TMP treatment ([5]; 5 μM TMP): no discernable cell toxicity
- dose response of viral RNA ([5]; 0.2, 1 and 5 μM TMP, FIG. 1): linear response that plateaued at 1 μM TMP
- cell lysis (LDH release) ([2]; 0.2 μM TMP, FIG. 3): 1-2%
- cell lysis (LDH release) ([2]; 5 μM TMP, FIG. 2): 10%
- cell lysis (LDH release) ([2]; 5 μM TMP, FIG. 3): ~20%
- cell lysis (LDH release) ([2]; 20 μM TMP, FIG. 2): 20-30%
- cell lysis (LDH release), observation ([2]; 80 μM TMP, FIG. 2): cells separating from the plate
- cell lysis (LDH release) ([2]; increased TMP concentration (between 0.2 and 5 μM; FIG. 3 series 0.2, 1, 5 μM)): approximately 8%
- viral activity ([6]; 1 μM TMP, 48 hours, FIGS. 4B and 4C): increase in viral activity
- viral replication ([6]; 5 μM TMP, 48 hours, FIGS. 4B and 4C): zero viral replication
- viral replication ([6]; 20 μM TMP, 48 hours, FIG. 4A): almost zero viral replication
- viral replication ([6]; 20 μM TMP, 48 hours, FIGS. 4B and 4C): reduction in viral replication comparable to the CM-treated positive control
- dose response of viral replication ([6]; FIG. 4A, 48 hours, Vero E6): linear dose response
- optimal TMP treatment range ([6]; SARS-CoV-2-infected Vero E6 in vitro, FIGS. 4A-4C): 5 µM
- cell cytotoxicity (cell lysis) ([3]; 0.2 μM TMP): no appreciable cytotoxic effects
- cell cytotoxicity (cell lysis) ([3]; 1.0 μM TMP): no appreciable cytotoxic effects
- cell cytotoxicity (cell lysis) ([3]; 5 μM TMP): no appreciable cytotoxic effects
- cell cytotoxicity (cell lysis) ([3]; 20 μM TMP): reduced in comparison to the 80 μM treatment
- cell toxicity resulting from the TMP treatment ([3]; 20 μM TMP, FIGS. 4B and 4C runs): no discernable cell toxicity
- cell cytotoxicity (cell lysis) ([3]; 80 μM TMP): high percentage of cell lysis

— patent US11844768B2, “Terameprocol and nordihydroguaiaretic acid (NDGA) derivatives as coronavirus anti-viral agents” (Erimos Pharmaceuticals, LLC, priority 2021, dated 2023)
